Source: US9981972B2, “N-hydroxy bicyclic hydantoin carbamates as tools for identification of serine hydrolase targets” (ABIDE THERAPEUTICS, INC., priority 2014, dated 2018)
Read-outs that look alike come from different tables or passages of the source.

Assays:
Format in all cases: biochemical
ABHD4 = target: T1, ABHD4 (Homo sapiens, UniProt Q8TB40); experiment: NAPE substrate hydrolysis assay, ABHD4-transfected HEK293T cell lysates; conditions: lysates from ABHD4-transfected HEK293T cells
T1 sequence (Q8TB40 1-342): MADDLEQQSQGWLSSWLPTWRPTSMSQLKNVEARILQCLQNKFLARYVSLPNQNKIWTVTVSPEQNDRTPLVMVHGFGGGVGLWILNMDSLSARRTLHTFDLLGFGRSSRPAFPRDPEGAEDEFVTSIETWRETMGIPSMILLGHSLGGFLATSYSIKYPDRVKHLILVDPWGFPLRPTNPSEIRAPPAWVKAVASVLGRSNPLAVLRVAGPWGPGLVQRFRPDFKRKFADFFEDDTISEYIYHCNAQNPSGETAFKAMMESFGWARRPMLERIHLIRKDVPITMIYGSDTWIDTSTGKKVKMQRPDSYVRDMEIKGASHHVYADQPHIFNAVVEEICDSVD
Description: NAPE hydrolysis was measured by following the release of oleic acid from the NAPE substrate (1,2-dioleoyl-sn-glycero-3-phospho (N-arachidonoyl) ethanolamine).

PPT1 = target: T2, PPT1 (Homo sapiens, UniProt P50897); experiment: PPT1 substrate assay in vitro, hPPT1-transfected HEK293T cell lysates; set-up: expressed in transfected cells; host or cells: HEK293T; conditions: for activity against PPT1 in situ and in vitro: in words, figures in the 9th table
T2 sequence (P50897 28-306): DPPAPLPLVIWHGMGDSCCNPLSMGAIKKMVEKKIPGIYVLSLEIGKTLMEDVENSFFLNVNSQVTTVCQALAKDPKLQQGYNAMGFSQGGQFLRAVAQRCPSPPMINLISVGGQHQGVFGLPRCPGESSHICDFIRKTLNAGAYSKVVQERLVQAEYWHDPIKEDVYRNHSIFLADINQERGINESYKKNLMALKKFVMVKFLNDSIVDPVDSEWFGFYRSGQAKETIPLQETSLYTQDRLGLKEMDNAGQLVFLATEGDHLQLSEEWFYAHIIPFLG
Description: PPT1 activity was assessed in vitro using a substrate assay adapted from previous studies (van Diggelen et al., Molecular genetics and metabolism 66, 240-244, 1999). Lysates from HEK293T cells transfected with an empty vector, or human PPT1 under a CMV promoter were adjusted to 1 mg/ml in PBS (25 μl), and then combined 1:1 with Mcllvain's phosphate/citrate buffer containing 0.375% (v/v) Triton-X 100 and 15 mM DTT (pH 5.0). This sample was pre-treated with inhibitor or DMSO for 30 minutes at 37° C., and 10 μl (5 μg protein) was used in the substrate assay as follows: Samples were diluted in a black 96-well plate (half-area) with 20 μl McIlvain's phosphate/citrate buffer (pH 5.0) containing 0.375% TX-100 and 15 mM DTT, as well as 0.64 mM MU-6S-Palm-PD-Glc and 0.1 U sweet almond glucosidase (Sigma). The reactions were incubated at 37° C. for 1 hour, quenched with 120 μl sodium bicarbonate buffer (pH 10.0), and hydrolysis by 4-MU fluorescence measured by excitement at […] and emission intensity at […]. 16 μg protein was used for analysis of native PC3 cells.
Compound 26 was then tested to see if it inhibited PPT1 activity using a substrate assay. Endogenous substrates for PPT1 remain poorly characterized, but this enzyme was assayed with a fluorogenic substrate 4-methylumbelliferyl-6-thio-palmitate-βD-glucopyranoside (MU-6S-Palm-βD-Glc). In this assay, PPT1 hydrolyzes the substrate's palmitoyl thioester bond, and exogenous sweet almond β-glucosidase deglycosylates and frees the fluorophore, 4-methylumbelliferone (4-MU), which is measured to assess PPT1 activity.

[1] = system: mouse LYPLA1/2 (quantified together); experiment: IC50 by gel-based competitive ABPP in vitro, mouse brain membrane proteome
Description: Assay Overview: The purpose of this assay was to determine IC50 values of powder samples of test compounds for enzyme of interest activity, and anti-targets in a complex proteomic lysate using a gel-based competitive ABPP assay. In this assay, a complex proteome was incubated with test compound followed by reaction with FP-Rh and SDS-PAGE analysis as described above.
Protocol Summary: Soluble HeLa cell proteome (50 μL reaction volume, 1 mg/mL in DPBS) or mouse brain membrane proteome (50 μL reaction volume, 1 mg/mL in DPBS) was treated with varying concentrations of test compound (1 μL of a 50× stock in DMSO) for 30 minutes at 37° C. FP-Rh (1 μL of 50× stock in DMSO) was added to a final concentration of 2 μM. The reaction was incubated for 30 minutes at 25° C., quenched with 16 μL 4×SDS-PAGE loading buffer (reducing), separated by SDS-PAGE and visualized by in-gel fluorescent scanning. The percentage activity remaining was determined by measuring the integrated optical density of the enzymes of interest, and anti-target bands relative to a DMSO-only (no compound) control. IC50 values were determined from dose-response curves from three replicates at each inhibitor concentration: 1, 10, 100, 1000, 10000 nM and 0.01, 0.1, 1, 10, 100, 1000, 10000, 50000, and 100000 nM.

[2] = cell lysates, pH 5.0, MU-6S-Palm-βD-Glc substrate, 95% confidence intervals in parentheses, read-out: IC50 for inhibition of human PPT1, in vitro (substrate)
[3] = mouse LYPLA1/2, in vitro, read-out: mLYPLA1/2 in vitro potency (IC50)

SMILES	effect on NAPE hydrolysis activity of ABHD4 (ABHD4)	IC50 (PPT1; [2]) [µM]	activity against PPT1 in situ and in vitro (PPT1)	IC50 [1, 3] [µM]	also measured
COc1ccc(N2CCN(C(=O)ON3C(=O)C4CN(CC5CCN(Cc6ccccc6)CC5)CCN4C3=O)CC2)cc1 (centres unmarked) [Compound 26, 7-((1-benzylpiperidin-4-yl)methyl)-1,3-dioxohexahydroimidazo[1,5-a]pyrazin-2(3H)-yl 4-(4-methoxyphenyl)piperazine-1-carboxylate]	neither Compound 26 nor Compound 1 altered				IC50 (PPT1; transfected lysates, pH 5.0, MU-6S-Palm-βD-Glc, read-out: PPT1 IC50, substrate assay): 6.5 µM
O=C(ON1C(=O)C2CN(Cc3ccc(Oc4ccccc4)cc3)CCN2C1=O)N1CCOCC1 (centres unmarked) [Compound 34, 1,3-dioxo-7-(4-phenoxybenzyl)hexahydroimidazo[1,5-a]pyrazin-2(3H)-yl morpholine-4-carboxylate]		> 50	limited activity against PPT1		IC50 (ABHD4): 0.5 µM
O=C(ON1C(=O)[C@@H]2CN(C(=O)N3CCOCC3)CCN2C1=O)N1CCC(CCc2ccc(Cl)cc2)CC1 [Compound 50, (S)-7-(morpholine-4-carbonyl)-1,3-dioxohexahydroimidazo[1,5-a]pyrazin-2(3H)-yl 4-(4-chloro-phenethyl)piperidine-1-carboxylate]				0.117	
COc1ccc(N2CCN(C(=O)ON3C(=O)[C@@H]4CN(CC5CCN(Cc6ccccc6)CC5)CCN4C3=O)CC2)cc1 [Compound 42, (S)-7-((1-benzylpiperidin-4-yl)methyl)-1,3-dioxo-hexahydroimidazo[1,5-a]pyrazin-2(3H)-yl 4-(4-methoxyphenyl)piperazine-1-carboxylate]				29.3	IC50 (PPT1; human PPT1, in vitro, method not stated at Table 5, read-out: hPPT1 in vitro potency (IC50)): 3.97 µM
O=C(ON1C(=O)C2CN(C(=O)N3CCOCC3)CCN2C1=O)N1CCC(CCc2ccc(Cl)cc2)CC1 (centres unmarked) [Compound 1, 7-(morpholine-4-carbonyl)-1,3-dioxohexahydroimidazo[1,5-a]pyrazin-2(3H)-yl 4-(4-chloro-phenethyl)piperidine-1-carboxylate]	neither Compound 26 nor Compound 1 altered	15	did, however, inhibit PPT1 activity		IC50 ([1]; LYPLA1/2 quantified together, mouse brain membrane proteome, read-out: mouse LYPLA1/2 collective IC50 in vitro): 0.154 µM; potency and selectivity for LYPLA1/2, concentration-dependent profiling ([1]; mouse brain membrane SHs, FIG. 7B): good potency and selectivity
O=C(ON1C(=O)[C@H]2CN(C(=O)N3CCOCC3)CCN2C1=O)N1CCC(CCc2ccc(Cl)cc2)CC1 [Compound 51, (R)-7-(morpholine-4-carbonyl)-1,3-dioxohexahydroimidazo[1,5-a]pyrazin-2(3H)-yl 4-(4-chloro-phenethyl)piperidine-1-carboxylate]				0.097	
